Data published in ChEMBL document CHEMBL1142001, “Novel and orally bioavailable inducible nitric oxide synthase inhibitors: synthesis and evaluation of optically active 4,5-dialkyl-2-iminoselenazolidine derivatives” (Bioorg Med Chem Lett, 2005).

Columns and labels:
[1] = biological target: Nitric oxide synthase, inducible (Homo sapiens, UniProt P35228); assay: Inhibitory concentration against inducible […]
[2] = biological target: Nitric oxide synthase 1 (Homo sapiens, UniProt P29475); assay: Inhibitory concentration against neuronal […]
[3] = test system: Mus musculus; assay: Inhibitory dose (p.o.) tested against plasma nitrite/nitrate levels in LPS-treated mice; format: functional; details: po, read-out: ID50 (the source's name)
[4] = Area under concentration time curve value in rat was determined at a intravenous dosage of 0.3 mg/kg; format: ADME, organism-based; design: dose 0.3 mg/kg, route intravenous; details: in vivo
[5] = Cmax of compound (0.3 mg/kg) on oral administration to rats; format: ADME, organism-based; design: dose 0.3 mg/kg, route oral; details: rat, in vivo
[6] = Half life value of compound (0.3 mg/kg) on oral administration to rats; format: ADME, organism-based; details: rat, in vivo
[7] = Half life value of compound (0.3 mg/kg) on intravenous administration to […]; format: ADME, organism-based; details: rat, in vivo
[8] = Area under the concentration time curve value of compound was determined in rats after oral dosage of 0.3 mg/kg; format: ADME, organism-based; design: dose 0.3 mg/kg, route oral; details: rat, in vivo
[9] = Oral bioavailability of compound (0.3 mg/kg) on oral administration to rats; format: ADME, organism-based; details: rat, in vivo, read-out: Bioavailabiility
[10] = Tmax of compound (0.3 mg/kg) on oral administration to rats; format: ADME, organism-based; details: rat, in vivo
[11] = Clearance rate (0.3 mg/kg) on intravenous administration to rats; format: ADME, organism-based; details: rat, in vivo

Nitric oxide synthase 1, sequence (P29475 whole entry): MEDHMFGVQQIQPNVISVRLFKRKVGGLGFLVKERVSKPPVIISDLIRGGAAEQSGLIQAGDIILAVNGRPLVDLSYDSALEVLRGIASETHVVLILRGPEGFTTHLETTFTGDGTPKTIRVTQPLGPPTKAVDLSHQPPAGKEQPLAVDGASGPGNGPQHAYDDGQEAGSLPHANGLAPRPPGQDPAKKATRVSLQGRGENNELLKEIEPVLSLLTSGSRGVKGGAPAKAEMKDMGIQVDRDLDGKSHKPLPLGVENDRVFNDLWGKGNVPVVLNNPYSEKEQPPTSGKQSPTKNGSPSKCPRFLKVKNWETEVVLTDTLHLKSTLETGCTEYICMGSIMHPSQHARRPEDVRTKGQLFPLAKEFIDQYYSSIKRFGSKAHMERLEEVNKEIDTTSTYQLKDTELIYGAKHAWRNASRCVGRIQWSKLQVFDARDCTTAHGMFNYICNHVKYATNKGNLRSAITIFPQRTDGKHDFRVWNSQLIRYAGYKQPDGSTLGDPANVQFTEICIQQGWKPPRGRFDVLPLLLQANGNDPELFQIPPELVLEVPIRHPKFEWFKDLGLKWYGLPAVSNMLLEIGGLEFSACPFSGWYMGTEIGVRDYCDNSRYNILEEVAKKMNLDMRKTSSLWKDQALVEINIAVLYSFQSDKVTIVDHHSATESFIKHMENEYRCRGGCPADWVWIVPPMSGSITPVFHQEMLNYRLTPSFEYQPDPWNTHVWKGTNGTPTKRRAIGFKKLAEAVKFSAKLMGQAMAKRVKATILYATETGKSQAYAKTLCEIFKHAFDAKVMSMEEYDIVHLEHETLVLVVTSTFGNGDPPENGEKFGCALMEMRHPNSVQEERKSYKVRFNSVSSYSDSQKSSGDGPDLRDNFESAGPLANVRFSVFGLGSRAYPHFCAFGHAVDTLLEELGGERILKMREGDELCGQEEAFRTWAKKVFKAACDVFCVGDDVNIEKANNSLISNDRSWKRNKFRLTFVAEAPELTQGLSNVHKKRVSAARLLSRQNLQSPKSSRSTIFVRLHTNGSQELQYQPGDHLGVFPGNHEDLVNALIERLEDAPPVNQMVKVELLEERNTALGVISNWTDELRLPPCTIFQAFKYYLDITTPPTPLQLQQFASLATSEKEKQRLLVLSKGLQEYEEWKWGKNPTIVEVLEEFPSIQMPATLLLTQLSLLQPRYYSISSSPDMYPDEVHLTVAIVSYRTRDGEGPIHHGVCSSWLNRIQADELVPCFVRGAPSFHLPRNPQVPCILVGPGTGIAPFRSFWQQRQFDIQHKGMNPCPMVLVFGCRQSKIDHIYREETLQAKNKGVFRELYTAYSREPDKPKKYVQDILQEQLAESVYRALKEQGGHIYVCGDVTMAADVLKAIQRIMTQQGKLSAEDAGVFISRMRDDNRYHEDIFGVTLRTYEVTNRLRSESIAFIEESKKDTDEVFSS
Nitric oxide synthase, inducible, sequence (P35228 whole entry): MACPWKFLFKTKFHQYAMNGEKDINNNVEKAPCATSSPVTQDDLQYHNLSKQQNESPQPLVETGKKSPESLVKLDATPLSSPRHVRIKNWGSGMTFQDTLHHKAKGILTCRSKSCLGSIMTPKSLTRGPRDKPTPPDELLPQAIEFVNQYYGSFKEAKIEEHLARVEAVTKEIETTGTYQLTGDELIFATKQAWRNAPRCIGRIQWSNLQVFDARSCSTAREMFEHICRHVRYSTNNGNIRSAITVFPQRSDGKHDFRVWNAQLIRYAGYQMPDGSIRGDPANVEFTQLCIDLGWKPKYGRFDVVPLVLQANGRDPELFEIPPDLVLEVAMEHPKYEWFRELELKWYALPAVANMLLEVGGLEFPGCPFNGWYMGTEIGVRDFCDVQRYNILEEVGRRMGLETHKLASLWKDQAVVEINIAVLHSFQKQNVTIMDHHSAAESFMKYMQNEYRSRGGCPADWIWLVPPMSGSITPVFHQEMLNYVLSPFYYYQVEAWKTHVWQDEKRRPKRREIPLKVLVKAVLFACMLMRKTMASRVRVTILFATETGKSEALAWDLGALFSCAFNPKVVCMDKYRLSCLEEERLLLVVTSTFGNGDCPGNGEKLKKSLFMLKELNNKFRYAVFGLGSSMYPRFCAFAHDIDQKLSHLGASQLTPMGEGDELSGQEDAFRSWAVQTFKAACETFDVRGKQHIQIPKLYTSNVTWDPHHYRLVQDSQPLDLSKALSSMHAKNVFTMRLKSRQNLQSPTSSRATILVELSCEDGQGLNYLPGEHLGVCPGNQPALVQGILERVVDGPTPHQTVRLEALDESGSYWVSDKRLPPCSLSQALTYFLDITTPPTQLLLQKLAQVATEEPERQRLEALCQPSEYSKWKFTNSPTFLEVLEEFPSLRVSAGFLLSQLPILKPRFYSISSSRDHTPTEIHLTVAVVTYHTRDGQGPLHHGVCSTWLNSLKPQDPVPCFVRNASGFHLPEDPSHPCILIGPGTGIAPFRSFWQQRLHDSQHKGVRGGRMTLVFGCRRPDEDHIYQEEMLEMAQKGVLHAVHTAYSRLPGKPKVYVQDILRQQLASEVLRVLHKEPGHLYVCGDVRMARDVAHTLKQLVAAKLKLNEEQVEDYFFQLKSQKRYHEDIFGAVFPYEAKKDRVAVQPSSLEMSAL

Row | Structure (SMILES) | IC50 [1] [nM] | IC50 [2] [nM] | also measured
1 | CC[C@H]1N=C(N)[Se][C@@H]1C | 9.4 | 92 | 
2 | CC[C@@H]1N=C(N)[Se][C@H]1C | 21 | 280 | 
3 | CC[C@@H]1[Se]C(N)=N[C@@H]1C | 66 | 1300 | 
4 | CC[C@@H]1N=C(N)[Se][C@@H]1C | 80 | 740 | 
5 | CC[C@H]1SC(N)=N[C@@H]1C | 6.6 | 380 | 
6 | CC[C@H]1[Se]C(N)=N[C@H]1C | 340 | 6900 | 
7 | CC[C@H]1[Se]C(N)=N[C@@H]1C | 9.3 | 790 | ED50 [3]: 0.3 mg/kg; AUC [4]: 117 ng·h/mL; Cmax [5]: 45 ng/mL; half-life [6]: 72 min; half-life [7]: 57 min; AUC [8]: 45 ng·h/mL; bioavailability [9]: 73%; Tmax [10]: 30 min; clearance [11]: 55.5 mL/min/kg
8 | CC[C@H]1N=C(N)[Se][C@H]1C | 21 | 280 | 
9 | CC[C@@H]1[Se]C(N)=N[C@H]1C | 34 | 350 | 
